“And” between values parts separate entries of the source, which are not always exact repeats. Equal values may be shown once. Inconclusive results and toxic doses are left out. No stated cut-off is given here; in the data, active means T/C of 150% or more; inactive means T/C below 125%.
System: L1210 leukemia ip in BDF1 mice, survival T/C
Test: NCI In Vivo Anticancer Drug Screen. Data for tumor model L1210 Leukemia (intraperitoneal) in B6D2F1 (BDF1) mice
Conditions: endpoint: mean survival time, higher = longer survival
How it was run: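 Antitumor effect is assessed in tumor-bearing animals. Survival in the compound arm is compared with a vehicle-dosed control arm and expressed as their quotient.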

[1] = dose: 50.0 mg/kg/injection, schedule: Q01DX009 (ip), vehicle: saline with Tween-80
[2] = dose: 100.0 mg/kg/injection, schedule: Q04DX002 (ip), vehicle: saline with Tween-80
[3] = dose: 100.0 mg/kg/injection, schedule: Q04DX003 (ip), vehicle: saline with Tween-80
[4] = dose: 200.0 mg/kg/injection, schedule: Q04DX002 (ip), vehicle: saline with Tween-80
[5] = dose: 200.0 mg/kg/injection, schedule: Q04DX003 (ip), vehicle: saline with Tween-80
[6] = dose: 400.0 mg/kg/injection, schedule: Q01DX009 (ip), vehicle: saline with Tween-80
[7] = dose: 400.0 mg/kg/injection, schedule: Q04DX002 (ip), vehicle: saline with Tween-80
[8] = dose: 400.0 mg/kg/injection, schedule: Q04DX003 (ip), vehicle: saline with Tween-80
[9] = dose: 100.0 mg/kg/injection, schedule: Q01DX009 (ip), vehicle: Klucel (hydroxypropylcellulose) (HPC)
[10] = dose: 200.0 mg/kg/injection, schedule: Q01DX009 (ip), vehicle: Klucel (hydroxypropylcellulose) (HPC)
[11] = dose: 400.0 mg/kg/injection, schedule: Q01DX009 (ip), vehicle: Klucel (hydroxypropylcellulose) (HPC)
[12] = dose: 100.0 mg/kg/injection, schedule: Q01DX009 (ip), vehicle: saline with Tween-80
[13] = dose: 200.0 mg/kg/injection, schedule: Q01DX009 (ip), vehicle: saline with Tween-80
[14] = dose: 50.0 mg/kg/injection, schedule: Q04DX002 (ip), vehicle: Klucel (hydroxypropylcellulose) (HPC)
[15] = dose: 100.0 mg/kg/injection, schedule: Q04DX002 (ip), vehicle: Klucel (hydroxypropylcellulose) (HPC)
[16] = dose: 200.0 mg/kg/injection, schedule: Q04DX002 (ip), vehicle: Klucel (hydroxypropylcellulose) (HPC)
[17] = dose: 400.0 mg/kg/injection, schedule: Q04DX002 (ip), vehicle: Klucel (hydroxypropylcellulose) (HPC)
[18] = dose: 100.0 mg/kg/injection, schedule: Q04DX003 (ip), vehicle: Klucel (hydroxypropylcellulose) (HPC)
[19] = dose: 200.0 mg/kg/injection, schedule: Q04DX003 (ip), vehicle: Klucel (hydroxypropylcellulose) (HPC)
[20] = dose: 400.0 mg/kg/injection, schedule: Q04DX003 (ip), vehicle: Klucel (hydroxypropylcellulose) (HPC)
[21] = dose: 100.0 mg/kg/injection, schedule: Q01DX001 (ip), vehicle: saline
[22] = dose: 200.0 mg/kg/injection, schedule: Q01DX001 (ip), vehicle: saline
[23] = dose: 400.0 mg/kg/injection, schedule: Q01DX001 (ip), vehicle: saline

Measured: T/C

Cc1c(Cl)cccc1NC(=O)Oc1ccccc1Cc1ccccc1
inactive: [1] 96 % of control and 102 % of control | dose: 100.0 mg/kg/injection, schedule: Q01DX001 (ip), vehicle: saline with Tween-80 95 % of control | [2] 96 % of control and 110 % of control | [3] 100 % of control | dose: 200.0 mg/kg/injection, schedule: Q01DX001 (ip), vehicle: saline with Tween-80 105 % of control | [4] 93 % of control and 92 % of control | [5] 94 % of control | dose: 400.0 mg/kg/injection, schedule: Q01DX001 (ip), vehicle: saline with Tween-80 86 % of control | [6] 97 % of control and 89 % of control | [7] 89 % of control and 91 % of control | [8] 86 % of control

NC1=NC(Cc2ccccc2)N(c2ccc(Cl)cc2)C(N)=N1 (stereo unspecified)
inactive: dose: 14.0 mg/kg/injection, schedule: Q01DX009 (ip), vehicle: steriod suspending solution 98 % of control | dose: 24.0 mg/kg/injection, schedule: Q01DX009 (ip), vehicle: steriod suspending solution 98 % of control | dose: 39.0 mg/kg/injection, schedule: Q01DX009 (ip), vehicle: steriod suspending solution 98 % of control | dose: 65.0 mg/kg/injection, schedule: Q01DX009 (ip), vehicle: steriod suspending solution 96 % of control

CN(C)c1ccc(/C=N/NC(=O)c2ccccc2NC(=O)c2ccc(Cl)cc2)c(Cl)c1
inactive: [9] 95 % of control | [10] 90 % of control | [11] 90 % of control

CC(=O)Nc1cc(C(=O)O)cc(C(F)(F)F)c1
inactive: [12] 96 % of control | [3] 96 % of control | [13] 100 % of control | [5] 102 % of control | [6] 97 % of control | [8] 94 % of control

CC(=O)Nc1ccc[n+](C)c1
inactive: dose: 100.0 mg/kg/injection, schedule: Q04DX003 (ip), vehicle: saline 108 % of control | dose: 200.0 mg/kg/injection, schedule: Q04DX003 (ip), vehicle: saline 105 % of control | dose: 400.0 mg/kg/injection, schedule: Q04DX003 (ip), vehicle: saline 100 % of control

Cc1nc2c(O)cccc2cc1CO
inactive: [9] 95 % of control | [10] 93 % of control

O=C(O)c1cccc(C(=O)O)[n+]1[O-]
inactive: [14] 101 % of control | [15] 95 % of control

CC(=O)NC1CCCC(OC(C)=O)C1 (stereo unspecified)
inactive: [1] 88 % of control | [12] 91 % of control

CCCCP(=O)(CCC)CCCC
inactive: [3] 99 % of control | [5] 94 % of control | [8] 87 % of control

CCCCSP(=S)(SCCCC)c1ccc(Cl)cc1
inactive: [2] 90 % of control | [4] 93 % of control | [7] 97 % of control

CCOP(=O)(Nc1ccc2c(c1)Cc1cc(Br)ccc1-2)OCC
inactive: dose: 50.0 mg/kg/injection, schedule: Q01DX001 (ip), vehicle: carboxymethylcellulose (CMC) 105 % of control | dose: 100.0 mg/kg/injection, schedule: Q01DX001 (ip), vehicle: carboxymethylcellulose (CMC) 92 % of control | dose: 200.0 mg/kg/injection, schedule: Q01DX001 (ip), vehicle: carboxymethylcellulose (CMC) 105 % of control | dose: 400.0 mg/kg/injection, schedule: Q01DX001 (ip), vehicle: carboxymethylcellulose (CMC) 108 % of control

O=C(Nc1cccc2ccccc12)OCC(Cl)(Cl)Cl
inactive: dose: 100.0 mg/kg/injection, schedule: Q01DX009 (ip), vehicle: carboxymethylcellulose (CMC) 97 % of control and 98 % of control | [15] 108 % of control | dose: 100.0 mg/kg/injection, schedule: Q04DX002 (ip), vehicle: carboxymethylcellulose (CMC) 108 % of control and 90 % of control | dose: 100.0 mg/kg/injection, schedule: Q04DX003 (ip), vehicle: carboxymethylcellulose (CMC) 103 % of control | dose: 200.0 mg/kg/injection, schedule: Q01DX009 (ip), vehicle: carboxymethylcellulose (CMC) 95 % of control and 90 % of control | [16] 96 % of control | dose: 200.0 mg/kg/injection, schedule: Q04DX002 (ip), vehicle: carboxymethylcellulose (CMC) 95 % of control and 97 % of control | dose: 200.0 mg/kg/injection, schedule: Q04DX003 (ip), vehicle: carboxymethylcellulose (CMC) 97 % of control | dose: 400.0 mg/kg/injection, schedule: Q01DX009 (ip), vehicle: carboxymethylcellulose (CMC) 95 % of control and 97 % of control | [17] 108 % of control | dose: 400.0 mg/kg/injection, schedule: Q04DX002 (ip), vehicle: carboxymethylcellulose (CMC) 97 % of control and 87 % of control | dose: 400.0 mg/kg/injection, schedule: Q04DX003 (ip), vehicle: carboxymethylcellulose (CMC) 94 % of control

CC(=O)CCC(=O)OC(C)(C)CN
inactive: [1] 102 % of control | dose: 50.0 mg/kg/injection, schedule: Q04DX003 (ip), vehicle: saline with Tween-80 99 % of control | [12] 103 % of control | [3] 87 % of control | [13] 107 % of control | [5] 91 % of control | [6] 103 % of control | [8] 96 % of control

CC(=O)NOCc1ccc(Cl)cc1
inactive: [18] 100 % of control | [19] 95 % of control | [20] 95 % of control

Cc1cccc(NC(=O)c2cccc([N+](=O)[O-])c2C(=O)O)c1C
inactive: [15] 103 % of control | [16] 103 % of control | [17] 103 % of control

Cc1ccc(OCC(=O)O)c(Cl)c1
inactive: [9] 104 % of control | [10] 94 % of control

CCOC(=O)C(C(=O)Nc1ccccc1)=S(C)C
inactive: [15] 94 % of control | [16] 106 % of control | [17] 116 % of control

COc1ccccc1OC(=O)Nc1ccc(S(=O)(=O)NC2CCCCC2)cc1
inactive: [21] 100 % of control | [22] 91 % of control | [23] 94 % of control

C=CCOc1c(Br)cc(Br)cc1Br
inactive: dose: 12.5 mg/kg/injection, schedule: Q04DX002 (ip), vehicle: Klucel (hydroxypropylcellulose) (HPC) 96 % of control | dose: 25.0 mg/kg/injection, schedule: Q04DX002 (ip), vehicle: Klucel (hydroxypropylcellulose) (HPC) 100 % of control | [14] 86 % of control | [15] 95 % of control | [16] 89 % of control | [17] 95 % of control

CN=C(NC)c1ccc(NC(=O)/C=C\c2ccc(/C=C/C(=O)Nc3ccc(C(=NC)NC)cc3)cc2)cc1
inactive: dose: 7.5 mg/kg/injection, schedule: Q01DX Z (oral), vehicle: saline 95 % of control | dose: 15.0 mg/kg/injection, schedule: Q01DX Z (oral), vehicle: saline 91 % of control | dose: 30.0 mg/kg/injection, schedule: Q01DX Z (oral), vehicle: saline 95 % of control | dose: 60.0 mg/kg/injection, schedule: Q01DX Z (oral), vehicle: saline 103 % of control

C[Si]1(C)CCCSC1
inactive: [21] 93 % of control | [22] 96 % of control | [23] 97 % of control

From PubChem BioAssay AID248 (DTP/NCI, 2004)
